pIC50: −log10 of the molar value.
Columns and labels:
human recombinant HDAC1 = target: T1, human recombinant HDAC1 (Homo sapiens, UniProt Q13547); experiment: HDAC enzyme activity inhibition assay (HDAC Fluorimetric Drug Discovery Kit), HDAC1; type: biochemical; details: human recombinant HDAC1, Fluor de Lys-SIRT1 substrate, 30° C. 60 minutes
T1 construct: purchased Enzo Life Sciences, Inc. BML-SE456
Description: (§1) For the HDAC1 enzyme activity test, human recombinant HDAC1 (BML-SE456) was used as an enzyme source and Fluor de Lys©-SIRT1 (BNL-K1177) was used as a substrate. After dispensing 5-fold diluted compounds into a 96-well plate, 0.3 μg of enzyme and 10 μM substrate were added to each well of the plate and allowed to react at 30° C. for 60 minutes. Next, Fluor de Lys© Developer II (BML-K1176) was added and reacted for 30 minutes to complete the reaction, and then the fluorescence values (Ex 360, Em 460) were measured using a multi-plate reader (Flexstation 3, Molecular Device). The HDAC6 enzymes were tested using human recombinant HDAC6 (382180) from Calbiochem Inc., according to the same protocol as the HDAC1 enzyme activity test method. With respect to the final result values, respective IC50 values were calculated using GraphPad Prism 4.0 program (Table 2).

human recombinant HDAC6 = target: T2, human recombinant HDAC6 (Homo sapiens, UniProt Q9UBN7); experiment: HDAC enzyme activity inhibition assay (HDAC Fluorimetric Drug Discovery Kit), HDAC6; type: biochemical; details: for HDAC6 selectivity (fold): HDAC1 vs HDAC6; for pIC50: human recombinant HDAC6, same protocol as HDAC1
T2 construct: purchased Calbiochem Inc. 382180
T2 sequence (Q9UBN7 1-1215): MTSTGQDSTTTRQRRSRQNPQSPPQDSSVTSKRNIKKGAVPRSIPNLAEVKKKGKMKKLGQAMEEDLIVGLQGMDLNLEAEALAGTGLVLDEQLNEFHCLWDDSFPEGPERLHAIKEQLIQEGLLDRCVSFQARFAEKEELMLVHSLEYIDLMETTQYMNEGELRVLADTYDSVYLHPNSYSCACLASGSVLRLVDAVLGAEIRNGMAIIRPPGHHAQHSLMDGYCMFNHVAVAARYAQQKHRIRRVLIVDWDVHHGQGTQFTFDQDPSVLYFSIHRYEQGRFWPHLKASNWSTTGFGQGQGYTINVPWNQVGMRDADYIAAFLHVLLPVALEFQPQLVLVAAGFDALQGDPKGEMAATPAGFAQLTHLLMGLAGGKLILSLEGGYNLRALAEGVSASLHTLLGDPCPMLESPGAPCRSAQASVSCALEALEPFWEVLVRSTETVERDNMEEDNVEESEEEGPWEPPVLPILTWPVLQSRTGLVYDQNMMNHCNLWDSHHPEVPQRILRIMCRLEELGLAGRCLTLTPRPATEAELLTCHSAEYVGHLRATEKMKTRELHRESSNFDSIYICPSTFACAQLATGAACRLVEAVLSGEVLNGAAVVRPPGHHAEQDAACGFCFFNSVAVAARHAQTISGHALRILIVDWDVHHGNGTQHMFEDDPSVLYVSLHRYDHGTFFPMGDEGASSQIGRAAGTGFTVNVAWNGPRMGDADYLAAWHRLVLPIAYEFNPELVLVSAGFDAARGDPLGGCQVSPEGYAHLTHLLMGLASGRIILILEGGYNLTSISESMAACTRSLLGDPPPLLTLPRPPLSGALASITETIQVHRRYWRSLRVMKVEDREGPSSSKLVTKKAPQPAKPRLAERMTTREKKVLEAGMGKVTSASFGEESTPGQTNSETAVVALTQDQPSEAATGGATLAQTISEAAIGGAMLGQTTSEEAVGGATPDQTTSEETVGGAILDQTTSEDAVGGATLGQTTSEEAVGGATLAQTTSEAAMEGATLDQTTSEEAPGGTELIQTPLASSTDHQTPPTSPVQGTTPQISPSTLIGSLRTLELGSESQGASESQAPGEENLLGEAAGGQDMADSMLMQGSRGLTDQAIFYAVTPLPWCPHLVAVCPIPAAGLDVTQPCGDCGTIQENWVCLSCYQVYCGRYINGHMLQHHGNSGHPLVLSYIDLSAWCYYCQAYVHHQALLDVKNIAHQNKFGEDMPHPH
Description: as §1

T1 sequence (Q13547 whole entry): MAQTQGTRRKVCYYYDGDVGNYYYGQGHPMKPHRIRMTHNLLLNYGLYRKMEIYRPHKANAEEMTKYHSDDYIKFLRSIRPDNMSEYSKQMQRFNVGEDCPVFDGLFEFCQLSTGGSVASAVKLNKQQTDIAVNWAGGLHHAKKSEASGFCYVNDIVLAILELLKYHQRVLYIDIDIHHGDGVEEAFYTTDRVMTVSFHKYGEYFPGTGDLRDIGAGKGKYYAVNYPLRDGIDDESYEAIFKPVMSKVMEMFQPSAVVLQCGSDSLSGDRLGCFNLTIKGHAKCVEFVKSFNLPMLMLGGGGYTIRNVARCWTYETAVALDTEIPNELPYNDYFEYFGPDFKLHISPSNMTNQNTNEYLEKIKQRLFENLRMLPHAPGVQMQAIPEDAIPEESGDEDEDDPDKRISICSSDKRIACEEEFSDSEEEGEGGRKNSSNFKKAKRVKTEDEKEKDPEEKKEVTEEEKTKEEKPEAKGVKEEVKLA

pIC50 (human recombinant HDAC1) | HDAC6 selectivity (fold) (human recombinant HDAC6) | pIC50 (human recombinant HDAC6) | SMILES
< 4.30 | 196 fold | 6.59 | CN1CC(F)(C(=O)N(Cc2ccc(-c3nnc(C(F)(F)F)o3)cn2)c2cccc(F)c2)C1 [Compound 6891, 3-fluoro-N-(3-fluorophenyl)-1-methyl-N-((5-(5-(trifluoromethyl)-1,3,4-oxadiazol-2-yl)pyridin-2-yl)methyl)azetidine-3-carboxamide]
< 4.52 | 30 fold | 6.00 | O=C(N(Cc1ccc(-c2nnc(C(F)F)o2)cc1F)c1ccccc1)C1(F)CCNCC1 [Compound 2865, N-(4-(5-(difluoromethyl)-1,3,4-oxadiazol-2-yl)-2-fluorobenzyl)-4-fluoro-N-phenylpiperidine-4-carboxamide 2,2,2-trifluoroacetate]
< 4.30 | 325 fold | 6.81 | O=C(N1CC(F)(C(=O)N(Cc2ccc(-c3nnc(C(F)F)o3)cc2F)c2ccccc2)C1)C(F)(F)F [Compound 3435, N-(4-(5-(difluoromethyl)-1,3,4-oxadiazol-2-yl)-2-fluorobenzyl)-3-fluoro-N-phenyl-1-(2,2,2-trifluoroacetyl)azetidine-3-carboxamide]
< 4.30 | 1,347 fold | 7.43 | CCC(=O)N1CC(F)(C(=O)N(Cc2ccc(-c3nnc(C(F)F)o3)cn2)c2ccccc2)C1 [Compound 3153, N-((5-(5-(difluoromethyl)-1,3,4-oxadiazol-2-yl)pyridin-2-yl)methyl)-3-fluoro-N-phenyl-1-propionylazetidine-3-carboxamide]
< 4.30 | 1,385 fold | 7.44 | O=C(N(Cc1ccc(-c2nnc(C(F)F)o2)cn1)c1cccc(F)c1)C1(F)CN(C2CCC(F)(F)CC2)C1 [Compound 3096, 1-(4,4-difluorocyclohexyl)-N-((5-(5-(difluoromethyl)-1,3,4-oxadiazol-2-yl)pyridin-2-yl)methyl)-3-fluoro-N-(3-fluorophenyl)azetidine-3-carboxamide]
< 4.30 | 941 fold | 7.27 | COCCC(=O)N1CC(F)(C(=O)N(Cc2ccc(-c3nnc(C(F)F)o3)cn2)c2ccccc2)C1 [Compound 3157, N-((5-(5-(difluoromethyl)-1,3,4-oxadiazol-2-yl)pyridin-2-yl)methyl)-3-fluoro-1-(3-methoxypropanoyl)-N-phenylazetidine-3-carboxamide]
< 4.30 | 1,436 fold | 7.46 | CCCN1CC(F)(C(=O)N(Cc2ccc(-c3nnc(C(F)F)o3)cn2)c2cccc(F)c2)C1 [Compound 3091, N-((5-(5-(difluoromethyl)-1,3,4-oxadiazol-2-yl)pyridin-2-yl)methyl)-3-fluoro-N-(3-fluorophenyl)-1-propylazetidine-3-carboxamide]
< 4.30 | 2,808 fold | 7.75 | CC(=O)N1CC(F)(C(=O)N(Cc2ccc(-c3nnc(C(F)F)o3)cn2)c2cccc(F)c2)C1 [Compound 3164, 1-acetyl-N-((5-(5-(difluoromethyl)-1,3,4-oxadiazol-2-yl)pyridin-2-yl)methyl)-3-fluoro-N-(3-fluorophenyl)azetidine-3-carboxamide]
< 4.30 | 771 fold | 7.19 | CN1CC(N2CC(F)(C(=O)N(Cc3ccc(-c4nnc(C(F)F)o4)cn3)c3ccccc3)C2)C1 [Compound 3105, N-((5-(5-(difluoromethyl)-1,3,4-oxadiazol-2-yl)pyridin-2-yl)methyl)-3-fluoro-1′-methyl-N-phenyl-[1,3′-biazetidine]-3-carboxamide]
< 4.30 | 1,075 fold | 7.33 | CN1CC(F)(C(=O)N(Cc2ccc(-c3nnc(C(F)F)o3)cn2)c2ccccc2)C1 [Compound 2973, N-((5-(5-(difluoromethyl)-1,3,4-oxadiazol-2-yl)pyridin-2-yl)methyl)-3-fluoro-1-methyl-N-phenylazetidine-3-carboxamide]
4.37 | 569 fold | 7.13 | CN1CCC(F)(C(=O)N(Cc2ccc(-c3nnc(C(F)F)o3)cn2)c2ccccc2)CC1 [Compound 2951, N-((5-(5-(difluoromethyl)-1,3,4-oxadiazol-2-yl)pyridin-2-yl)methyl)-4-fluoro-1-methyl-N-phenylpiperidine-4-carboxamide]
4.35 | 2,348 fold | 7.72 | CC(C)CN1CC(N2CCC(F)(C(=O)N(Cc3ccc(-c4nnc(C(F)F)o4)cn3)c3cccc(F)c3)CC2)C1 [Compound 3392, N-((5-(5-(difluoromethyl)-1,3,4-oxadiazol-2-yl)pyridin-2-yl)methyl)-4-fluoro-N-(3-fluorophenyl)-1-(1-isobutylazetidine-3-yl)piperidine-4-carboxamide]
< 4.30 | 988 fold | 7.30 | CN1CC(N2CC(F)(C(=O)N(Cc3ccc(-c4nnc(C(F)F)o4)cn3)c3cccc(F)c3)C2)C1 [Compound 3219, N-((5-(5-(difluoromethyl)-1,3,4-oxadiazol-2-yl)pyridin-2-yl)methyl)-3-fluoro-N-(3-fluorophenyl)-1′-methyl-[1,3′-biazetidine]-3-carboxamide]
4.46 | 1,343 fold | 7.59 | O=C(N(Cc1ccc(-c2nnc(C(F)F)o2)cn1)c1cccc(F)c1)C1(F)CN(C2CCN(C3CCOCC3)CC2)C1 [Compound 3410, N-((5-(5-(difluoromethyl)-1,3,4-oxadiazol-2-yl)pyridin-2-yl)methyl)-3-fluoro-N-(3-fluorophenyl)-1-(1-(tetrahydro-2H-pyran-4-yl)piperidin-4-yl)azetidine-3-carboxamide]
4.50 | 1,618 fold | 7.71 | O=C(N(Cc1ccc(-c2nnc(C(F)F)o2)cn1)c1cccc(F)c1)C1(F)CN(C2CN(C3CCCC3)C2)C1 [Compound 3396, 1′-cyclopentyl-N-((5-(5-(difluoromethyl)-1,3,4-oxadiazol-2-yl)pyridin-2-yl)methyl)-3-fluoro-N-(3-fluorophenyl)-[1,3′-biazetidine]-3-carboxamide]
4.56 | 735 fold | 7.43 | CCCCN1CC(F)(C(=O)N(Cc2ccc(-c3nnc(C(F)F)o3)cn2)c2ccccc2)C1 [Compound 3003, 1-butyl-N-((5-(5-(difluoromethyl)-1,3,4-oxadiazol-2-yl)pyridin-2-yl)methyl)-3-fluoro-N-phenylazetidine-3-carboxamide]
4.55 | 1,361 fold | 7.68 | CCCCN1CC(N2CCC(F)(C(=O)N(Cc3ccc(-c4nnc(C(F)F)o4)cn3)c3cccc(F)c3)CC2)C1 [Compound 3391, 1-(1-butylazetidine-3-yl)-N-((5-(5-(difluoromethyl)-1,3,4-oxadiazol-2-yl)pyridin-2-yl)methyl)-4-fluoro-N-(3-fluorophenyl)piperidine-4-carboxamide]
< 4.30 | 1,466 fold | 7.47 | O=C(C1CCCC1)N1CC(F)(C(=O)N(Cc2ccc(-c3nnc(C(F)F)o3)cn2)c2ccccc2)C1 [Compound 3160, 1-(cyclopentanecarbonyl)-N-((5-(5-(difluoromethyl)-1,3,4-oxadiazol-2-yl)pyridin-2-yl)methyl)-3-fluoro-N-phenylazetidine-3-carboxamide]

Source: patent US20230278995A1, “1,3,4-OXADIAZOLE DERIVATIVE COMPOUNDS AS HISTONE DEACETYLASE 6 INHIBITOR, AND THE PHARMACEUTICAL COMPOSITION COMPRISING THE SAME” (CHONG KUN DANG PHARMACEUTICAL CORP., priority 2020, published 2023)
